Columns and labels:
E. coli = assay: Spraying whole chicken carcasses with a commercial sprayer; design: species or system Escherichia coli; conditions: for BACTERIA PRESENT, 5,000 ppm CPC: Petrifilm, spray 20 seconds at 60 psi
Protocol: (§1) These experiments tested the effect that spraying QACs on whole chicken carcasses using a commercial sprayer would have on the reduction of viable bacteria. The bacterial inoculating solutions were made as follows: E. coli (ATTC #25922) was grown in brain heart infusion broth (BHI) for 20-24 h and then diluted to a 1:1000 concentration by adding 0.5 ml of E. coli culture to 500 ml of physiological saline solution (PSS). S. typhimurium was grown in BHI for 20-24 h and then diluted to a 1:5000 concentration by adding 0.1 ml of S. typhimurium culture to 500 ml of physiological saline solution (PSS). […] Prechill chicken carcasses were obtained from a local poultry processing plant for each trial. The carcasses were placed on a shackle line and 1 ml of the bacterial inoculating solution was sprayed on the breast of the carcass, and 1 ml was sprayed on the back. The bacteria were allowed to attach for 30 min at room temperature. After attachment the carcasses were rinsed on the shackle line with tap water for 20 seconds. The carcasses were divided into groups of ten. […] In the S. typhimurium tests, there was also a group that was not sprayed after inoculation to evaluate the effect of the spray.
(§2) For all of the bacteria, one group of carcasses were treated with the Johnson™ washer for 20 seconds at 60 psi with 35 cups of tap water. After the rinse, the carcasses were allowed to set for 90 seconds, and then rinsed with 20 cups of tap water for 20 seconds at 80 psi. This rinse cycle was repeated either two or three times. The interval of each rinse was also 90 seconds. […] This rinse cycle was repeated either two or three times.
(§3) After treatment the carcasses were placed in plastic bags and 100 ml of 0.1% buffered peptone water (BPW) was added to each bag. The bags were mechanically shaken and the rinse collected for most probable number (MPN) technique. Petrifilm™ was also employed for evaluation of total aerobic plate counts (TPC). Preexisting (not inoculated) C. jejuni was enumerated by the MPN technique and E. coli by Petrifilm™.

C. jejuni = assay: as above; design: species or system Campylobacter jejuni; conditions: for BACTERIA PRESENT, 5,000 ppm CPC: preexisting C. jejuni, MPN, spray 20 seconds at 60 psi
Protocol: as §1, §2, §3

S. typhimurium [1] = assay: as above; design: species or system Salmonella typhimurium
Protocol: as §1, §2, §3

Escherichia coli O157:H7 [2] = system: Escherichia coli O157:H7
Salmonella = assay: Another spraying experiment on chicken carcasses; conditions: 90 second spraying of chicken carcasses with 5,000 ppm CPC
L. monocytogenes [3] = assay: Inhibition of attachment of Listeria monocytogenes to chicken skin
From the text: The steps of Example 3 were followed except that L. monocytogenes was used to inoculate the chicken skin and the media in the plastic bag used in the Stomacher 400 contained 0.1% peptone.

[4] = Ames assay for mutagenicity; assay type: cell-based
Protocol: The present invention has an important application in the food processing industry, as well as for home and institutional food preparation. QACs are readily available and the cost of carrying out the method of the present invention is not expensive as compared to existing antimicrobial processes. […] A range of concentrations of QACs are effective in preventing broad spectrum microbial growth on food products. QACs are tested by the Ames assay for mutagenicity.

Campylobacter jejuni = assay: MBC, macrodilution broth method; assay type: cell-based; conditions: microaerophilic, 37° C., 48 hours
Protocol: (§4) Experiments were conducted by microaerophilic incubation at 37° C. for 48 hours. An aliquot of each dilution was pour plated in agar and incubated in microaerophilic conditions at 37° C. for 48 hours. MBCs were determined as the lowest dilution with no growth.

Arcobacter butzleri = assay: MBC, macrodilution broth method; assay type: cell-based; conditions: microaerophilic, 37° C., 48 hours
Protocol: as §4

Escherichia coli O157:H7 [5] = system: Escherichia coli O157:H7; remark: listed apart in the source
Escherichia coli O157:H7 [6] = system: Escherichia coli O157:H7; remark: listed apart in the source
L. monocytogenes [7] = assay: Reduction of viable Listeria monocytogenes attached to chicken skin; conditions: CPC 2000 ppm or higher
From the text: The steps of Example 2 were followed except that L. monocytogenes was used to inoculate the chicken skin and the media in the plastic bag used in the Stomacher 400 contained 0.1% peptone.

S. typhimurium [8] = assay: Concentration and time study: reduction of viable S. typhimurium on chicken skin; design: species or system Salmonella typhimurium; conditions: CPC 4000 and 8000 ppm in 5% glycerin-PBS, contact times as low as 3 min
Protocol: CPC in the glycerin-PBS mixture. […] Salmonella storage was on TSA. Inoculum preparation was performed as follows.
Culture plates with the skin pieces were incubated (30 min., 35° C.), and then the incubating solution was removed by aspiration. The inoculated skins were treated with 5 ml of the test solution. […] A corner of the bag was aseptically cut and the entire contents were transferred to a sterile centrifuge tube, which was then spun for 10 min (12,000 rpm, 20° C.). The pellet was resuspended in 5 ml 0.1% (w/v) peptone/water.

**Q.** What does the source list for `CCCCCCCCCCCCCCCC[n+]1ccccc1` [CPC, cetylpyridinium chloride]?
**A.** Reduction in Log10 (water control vs 5,000 ppm CPC) (E. coli; Trial 1): 1.588 Log10; BACTERIA PRESENT, 5,000 ppm CPC (E. coli; Trial 1): 0.386; Reduction in Log10 (water control vs 5,000 ppm CPC) (E. coli; Trial 2): 0.920 Log10; BACTERIA PRESENT, 5,000 ppm CPC (E. coli; Trial 2): 0.460; Reduction in Log10 (water control vs 5,000 ppm CPC) (C. jejuni; Trial 1): 2.613 Log10; BACTERIA PRESENT, 5,000 ppm CPC (C. jejuni; Trial 1): 0; Reduction in Log10 (water control vs 5,000 ppm CPC) (C. jejuni; Trial 2): 2.014 Log10; BACTERIA PRESENT, 5,000 ppm CPC (C. jejuni; Trial 2): 0.629; Reduction, No Spray vs. CPC Treatment (S. typhimurium [1]; trial 1 (Dec. 02, 1996)): 1.047 Log10 CFUs; Reduction, Spray vs. CPC Treatment (S. typhimurium [1]; trial 1 (Dec. 02, 1996)): 0.744 Log10 CFUs; S. typhimurium, 5,000 ppm CPC (S. typhimurium [1]; trial 1 (Dec. 02, 1996)): 4.295 Log10 CFUs; Reduction, No Spray vs. CPC Treatment (S. typhimurium [1]; trial 2 (Dec. 09, 1996)): 3.327 Log10 CFUs; Reduction, Spray vs. CPC Treatment (S. typhimurium [1]; trial 2 (Dec. 09, 1996)): 2.955 Log10 CFUs; S. typhimurium, 5,000 ppm CPC (S. typhimurium [1]; trial 2 (Dec. 09, 1996)): 1.977 Log10 CFUs; Reduction, No Spray vs. CPC Treatment (S. typhimurium [1]; trial 3 (Dec. 16, 1996)): 2.395 Log10 CFUs; Reduction, Spray vs. CPC Treatment (S. typhimurium [1]; trial 3 (Dec. 16, 1996)): 2.548 Log10 CFUs; S. typhimurium, 5,000 ppm CPC (S. typhimurium [1]; trial 3 (Dec. 16, 1996)): 2.606 Log10 CFUs; Reduction, No Spray vs. CPC Treatment (S. typhimurium [1]; trial 4 (Jan. 27, 1997)): 3.69 Log10 CFUs; Reduction, Spray vs. CPC Treatment (S. typhimurium [1]; trial 4 (Jan. 27, 1997)): 3.45 Log10 CFUs; S. typhimurium, 5,000 ppm CPC (S. typhimurium [1]; trial 4 (Jan. 27, 1997)): 1.03 Log10 CFUs; Reduction, No Spray vs. CPC Treatment (S. typhimurium [1]; trial 5 (Feb. 03, 1997)): 2.76 Log10 CFUs; Reduction, Spray vs. CPC Treatment (S. typhimurium [1]; trial 5 (Feb. 03, 1997)): 2.79 Log10 CFUs; S. typhimurium, 5,000 ppm CPC (S. typhimurium [1]; trial 5 (Feb. 03, 1997)): 1.426 Log10 CFUs; reduction of Salmonella by CPC in the wash water (S. typhimurium [1]; wash water of the S. typhimurium runs): 1 log; number of attached bacteria reduced to (Escherichia coli O157:H7 [2]): below 0.1%; reduction of Salmonella (Salmonella): 3.3 log10; reduction of attached bacteria (L. monocytogenes [3]; 50 ppm CPC): 82%; reduction of attached bacteria (L. monocytogenes [3]; 100 ppm CPC): 92%; reduction of attached bacteria (L. monocytogenes [3]; 500 and 1000 ppm CPC): 100%; mutagenicity by the Ames assay [4]: nonmutagenic; CPC Vs Campylobacter Jejuni, growth in MBC test (Campylobacter jejuni; CPC 0.50 μg/mL): +; CPC Vs Campylobacter Jejuni, growth in MBC test (Campylobacter jejuni; CPC 0.98 μg/mL): +; CPC Vs Campylobacter Jejuni, growth in MBC test (Campylobacter jejuni; CPC 1.96 μg/mL): +; CPC Vs Campylobacter Jejuni, growth in MBC test (Campylobacter jejuni; CPC 3.91 μg/mL): +; CPC Vs Campylobacter Jejuni, growth in MBC test (Campylobacter jejuni; CPC 7.81 μg/mL): −; CPC Vs Campylobacter Jejuni, growth in MBC test (Campylobacter jejuni; CPC 15.63 μg/mL): −; CPC Vs Campylobacter Jejuni, growth in MBC test (Campylobacter jejuni; CPC 31.25 μg/mL): −; CPC Vs Campylobacter Jejuni, growth in MBC test (Campylobacter jejuni; CPC 62.5 μg/mL): −; CPC Vs Campylobacter Jejuni, growth in MBC test (Campylobacter jejuni; CPC 125 μg/mL): −; CPC Vs Campylobacter Jejuni, growth in MBC test (Campylobacter jejuni; CPC […]): +; CPC Vs Arcobacter Butzleri, growth in MBC test (Arcobacter butzleri; CPC 0.50 μg/mL): +; CPC Vs Arcobacter Butzleri, growth in MBC test (Arcobacter butzleri; CPC 0.98 μg/mL): +; CPC Vs Arcobacter Butzleri, growth in MBC test (Arcobacter butzleri; CPC 1.96 μg/mL): +; CPC Vs Arcobacter Butzleri, growth in MBC test (Arcobacter butzleri; CPC 3.91 μg/mL): +; CPC Vs Arcobacter Butzleri, growth in MBC test (Arcobacter butzleri; CPC 7.81 μg/mL): +; CPC Vs Arcobacter Butzleri, growth in MBC test (Arcobacter butzleri; CPC 15.63 μg/mL): +; CPC Vs Arcobacter Butzleri, growth in MBC test (Arcobacter butzleri; CPC 31.25 μg/mL): +; CPC Vs Arcobacter Butzleri, growth in MBC test (Arcobacter butzleri; CPC 62.5 μg/mL): −; CPC Vs Arcobacter Butzleri, growth in MBC test (Arcobacter butzleri; CPC 125 μg/mL): −; CPC Vs Arcobacter Butzleri, growth in MBC test (Arcobacter butzleri; CPC […]): +; reduction in the number of bacteria attached to the beef (Escherichia coli O157:H7 [5]): 76%; reduction in attached bacteria (Escherichia coli O157:H7 [6]): 62-64%; reduction in L. monocytogenes (L. monocytogenes [7]): > 4 log10; decontamination (Salmonella reduction) on chicken skin (S. typhimurium [8]): ~5 log10

Source: patent US8323673B2, “Concentrated, non-foaming solution of quaternary ammonium compounds and methods of use” (University of Arkansas, priority 1996, dated 2012)
